Experiments:
Assay type in all cases: in vivo
Details in all cases: for Germinative energy: day 3; for Germinative capacity / Number of lateral roots / Sprout height / Taproot length: day 7
[1] = tested on: tomato seeds (“Volgogradets” variety); test: Laboratory tests of DMOA and DEOA for tomato seeds
Protocol: (§1) After that DMOA and DEOA were dissolved in dimethyl sulfoxide to give solutions of 10 g/L concentration, then water was added to give aqueous solutions of DMOA with concentrations of 5.5·10^−5 M, 5.5·10^−6 M, 5.5·10^−7 M, 5.5·10^−8 M, 5.5·10^−9 M and DEOA with concentrations of 4.8·10^−5 M, 4.8·10^−6 M, 4.8·10^−7 M, 4.8·10^−8 M, 4.8·10^−9 M.
(§2) The obtained aqueous solutions of DMOA and DEOA were tested in the Scientific Center of Soil-Ecological Reasearch of the Federal State-Funded Educational Institution of Higher Education “Russian State Agrarian University—Moscow Agricultural Academy named after K. A. Timiryazev” (Moscow, 2015) according to the method described by T. A. Sergeeva (Method of laboratory testing of herbicides, Plant protection, 1963, No. 2, pp. 42-43). The primary laboratory screening of DMOA and DEOA was carried out on the seeds of five different crops: sunflower of “Voronezh 638” variety, soybean of “Vilana” variety, alfalfa of “Vega” variety, cucumber of “Nezhinsky” variety and tomato of “Volgogradets” variety.
(§3) Water was used as a reference.
(§4) A single experiment was carried out in a Petri dish. A circle of filter paper was laid at the bottom of the dish and treated with 5 ml of the work solution selected for the experiment. After that 25 seeds were uniformly laid on the surface of the treated filter paper. The Petri dish was kept at a temperature of 21-23° C. with illumination by fluorescent lamps for 7 days. The fourfold replication of the experiment within a single variant was applied.
(§5) The experiment identified the number and percentage of normally germinated seeds on day 3 (germinative energy) and on day 7 (germinative capacity) after the beginning of the experiment. On day 7 the main biometric parameters were also measured: sprout height (mm), taproot length (mm) and number of lateral roots (pcs).
(§6) The results were processed with the method of variance analysis with the help of STRAZ software in order to get the LSD0.05 (least significant difference between the test results on 5% significance level).

[2] = tested on: sunflower seeds (“Voronezh 638” variety); test: Laboratory tests of DMOA and DEOA for sunflower seeds
Protocol: as §1, §2, §3, §4, §5, §6

[3] = tested on: soybean seeds (“Vilana” variety); test: Laboratory tests of DMOA and DEOA for soybean seeds
Protocol: as §1, §2, §3, §4, §5, §6

[4] = tested on: cucumber seeds (“Nezhinsky” variety); test: Laboratory tests of DMOA and DEOA for cucumber seeds
Protocol: as §1, §2, §3, §4, §5, §6

Sodium salt of dimethyl ester of oxaloacetic acid [DMOA]
Germinative energy ([1]; 5.5 · 10^−5 M): 93%
Germinative capacity ([1]; 5.5 · 10^−5 M): 95%
Number of lateral roots ([1]; 5.5 · 10^−5 M): 0.2 pcs.
Sprout height ([1]; 5.5 · 10^−5 M): 25.9 mm
Taproot length ([1]; 5.5 · 10^−5 M): 83.2 ↑ mm
Germinative energy ([1]; 5.5 · 10^−6 M): 88%
Germinative capacity ([1]; 5.5 · 10^−6 M): 90%
Number of lateral roots ([1]; 5.5 · 10^−6 M): 0.5 ↑ pcs.
Sprout height ([1]; 5.5 · 10^−6 M): 24.6 mm
Taproot length ([1]; 5.5 · 10^−6 M): 79.8 mm
Germinative energy ([1]; 5.5 · 10^−7 M): 88%
Germinative capacity ([1]; 5.5 · 10^−7 M): 98 ↑ %
Number of lateral roots ([1]; 5.5 · 10^−7 M): 0.6 ↑ pcs.
Sprout height ([1]; 5.5 · 10^−7 M): 23.7 mm
Taproot length ([1]; 5.5 · 10^−7 M): 74.5 mm
Germinative energy ([1]; 5.5 · 10^−8 M): 98 ↑ %
Germinative capacity ([1]; 5.5 · 10^−8 M): 98 ↑ %
Number of lateral roots ([1]; 5.5 · 10^−8 M): 0.1 pcs.
Sprout height ([1]; 5.5 · 10^−8 M): 23.4 mm
Taproot length ([1]; 5.5 · 10^−8 M): 83.6 ↑ mm
Germinative energy ([1]; 5.5 · 10^−9 M): 88%
Germinative capacity ([1]; 5.5 · 10^−9 M): 90%
Number of lateral roots ([1]; 5.5 · 10^−9 M): 0.7 ↑ pcs.
Sprout height ([1]; 5.5 · 10^−9 M): 24.4 mm
Taproot length ([1]; 5.5 · 10^−9 M): 86.9 ↑↑ mm
Germinative energy ([2]; 5.5 · 10^−5 M): 80%
Germinative capacity ([2]; 5.5 · 10^−5 M): 90%
Number of lateral roots ([2]; 5.5 · 10^−5 M): 9.7 pcs.
Sprout height ([2]; 5.5 · 10^−5 M): 23.8 mm
Taproot length ([2]; 5.5 · 10^−5 M): 35.2 mm
Germinative energy ([2]; 5.5 · 10^−6 M): 83%
Germinative capacity ([2]; 5.5 · 10^−6 M): 93%
Number of lateral roots ([2]; 5.5 · 10^−6 M): 8.5 pcs.
Sprout height ([2]; 5.5 · 10^−6 M): 23.0 mm
Taproot length ([2]; 5.5 · 10^−6 M): 46.4 ↑ mm
Germinative energy ([2]; 5.5 · 10^−7 M): 90 ↑ %
Germinative capacity ([2]; 5.5 · 10^−7 M): 93%
Number of lateral roots ([2]; 5.5 · 10^−7 M): 8.2 pcs.
Sprout height ([2]; 5.5 · 10^−7 M): 26.9 ↑ mm
Taproot length ([2]; 5.5 · 10^−7 M): 29.8 ↓ mm
Germinative energy ([2]; 5.5 · 10^−8 M): 93 ↑ %
Germinative capacity ([2]; 5.5 · 10^−8 M): 91%
Number of lateral roots ([2]; 5.5 · 10^−8 M): 7.8 pcs.
Sprout height ([2]; 5.5 · 10^−8 M): 28.8 ↑↑ mm
Taproot length ([2]; 5.5 · 10^−8 M): 38.1 mm
Germinative energy ([2]; 5.5 · 10^−9 M): 87%
Germinative capacity ([2]; 5.5 · 10^−9 M): 93%
Number of lateral roots ([2]; 5.5 · 10^−9 M): 11.6 ↑ pcs.
Sprout height ([2]; 5.5 · 10^−9 M): 27.8 mm
Taproot length ([2]; 5.5 · 10^−9 M): 51.9 ↑ mm
Germinative energy ([3]; 5.5 · 10^−5 M): 78%
Germinative capacity ([3]; 5.5 · 10^−5 M): 89%
Number of lateral roots ([3]; 5.5 · 10^−5 M): 0.2 pcs.
Sprout height ([3]; 5.5 · 10^−5 M): 16.0 mm
Taproot length ([3]; 5.5 · 10^−5 M): 35.5 mm
Germinative energy ([3]; 5.5 · 10^−6 M): 82%
Germinative capacity ([3]; 5.5 · 10^−6 M): 97%
Number of lateral roots ([3]; 5.5 · 10^−6 M): 0.0 pcs.
Sprout height ([3]; 5.5 · 10^−6 M): 19.0 ↑ mm
Taproot length ([3]; 5.5 · 10^−6 M): 37.6 mm
Germinative energy ([3]; 5.5 · 10^−7 M): 65%
Germinative capacity ([3]; 5.5 · 10^−7 M): 90%
Number of lateral roots ([3]; 5.5 · 10^−7 M): 0.0 pcs.
Sprout height ([3]; 5.5 · 10^−7 M): 19.0 ↑ mm
Taproot length ([3]; 5.5 · 10^−7 M): 39.5 mm
Germinative energy ([3]; 5.5 · 10^−8 M): 77%
Germinative capacity ([3]; 5.5 · 10^−8 M): 87%
Number of lateral roots ([3]; 5.5 · 10^−8 M): 0.0 pcs.
Sprout height ([3]; 5.5 · 10^−8 M): 19.5 ↑↑ mm
Taproot length ([3]; 5.5 · 10^−8 M): 38.4 mm
Germinative energy ([3]; 5.5 · 10^−9 M): 72%
Germinative capacity ([3]; 5.5 · 10^−9 M): 83%
Number of lateral roots ([3]; 5.5 · 10^−9 M): 0.0 pcs.
Sprout height ([3]; 5.5 · 10^−9 M): 17.8 ↑ mm
Taproot length ([3]; 5.5 · 10^−9 M): 37.0 mm
Germinative energy ([4]; 5.5 · 10^−5 M): 86%
Germinative capacity ([4]; 5.5 · 10^−5 M): 82%
Number of lateral roots ([4]; 5.5 · 10^−5 M): 11.9 pcs.
Sprout height ([4]; 5.5 · 10^−5 M): 19.0 mm
Taproot length ([4]; 5.5 · 10^−5 M): 74.2 mm
Germinative energy ([4]; 5.5 · 10^−6 M): 88%
Germinative capacity ([4]; 5.5 · 10^−6 M): 91%
Number of lateral roots ([4]; 5.5 · 10^−6 M): 12.3 pcs.
Sprout height ([4]; 5.5 · 10^−6 M): 15.9 mm
Taproot length ([4]; 5.5 · 10^−6 M): 75.6 mm
Germinative energy ([4]; 5.5 · 10^−7 M): 85%
Germinative capacity ([4]; 5.5 · 10^−7 M): 94%
Number of lateral roots ([4]; 5.5 · 10^−7 M): 13.7 pcs.
Sprout height ([4]; 5.5 · 10^−7 M): 17.7 mm
Taproot length ([4]; 5.5 · 10^−7 M): 78.1 mm
Germinative energy ([4]; 5.5 · 10^−8 M): 86%
Germinative capacity ([4]; 5.5 · 10^−8 M): 78%
Number of lateral roots ([4]; 5.5 · 10^−8 M): 13.5 pcs.
Sprout height ([4]; 5.5 · 10^−8 M): 17.1 mm
Taproot length ([4]; 5.5 · 10^−8 M): 74.8 mm
Germinative energy ([4]; 5.5 · 10^−9 M): 82%
Germinative capacity ([4]; 5.5 · 10^−9 M): 95%
Number of lateral roots ([4]; 5.5 · 10^−9 M): 12.9 pcs.
Sprout height ([4]; 5.5 · 10^−9 M): 18.2 mm
Taproot length ([4]; 5.5 · 10^−9 M): 82.5 mm
